Entries after “also recorded” stand apart in the source; their conditions may differ.
Test system: MRSA
Assay: Potentiating effect of galloyl quinic acid derivatives for the antibacterial activity of oxacillin (agar plate dilution method, MIC)
Type: cell-based, Staphylococcus aureus
Method: According to the agar plate dilution method defined by Japan Society of Chemotherapy, MIC (Minimum inhibitory concentration) was determined. CAMHA was prepared by adding 50 mg/l of Ca-ion, 25 mg/l of Mg-ion, and 2% of NaCl to Mueller-Hinton II Agar (MHA), and it was used as a medium for use in the measurement of sensitivity. The bacterial liquid was incubated at 37° C. overnight and diluted to 10^6 CFU/ml with saline.
It was confirmed that the known substances shown below were contained in “Tara” and their MICs were determined as described in example 2 with respect to the effects of the combination use with oxacillin

SMILES: COC(=O)C1(O)CC(OC(=O)c2cc(O)c(O)c(O)c2)C(OC(=O)c2cc(O)c(O)c(O)c2)C(OC(=O)c2cc(O)c(O)c(O)c2)C1 (stereo not shown) [compound 2]
- Oxacillin MIC (ATCC 6538, with 12.5 μg/ml of compound): <0.5 µg/mL
- Oxacillin MIC (ATCC 6538, with 25 μg/ml of compound): <0.5 µg/mL
- Oxacillin MIC (ATCC 6538, with 50 μg/ml of compound): <0.5 µg/mL
- Oxacillin MIC (MRSA 1, with 12.5 μg/ml of compound): >256 µg/mL
- Oxacillin MIC (MRSA 1, with 25 μg/ml of compound): >256 µg/mL
- Oxacillin MIC (MRSA 1, with 50 μg/ml of compound): >256 µg/mL
- Oxacillin MIC (MRSA 2, with 12.5 μg/ml of compound): 256 µg/mL
- Oxacillin MIC (MRSA 2, with 25 μg/ml of compound): 32 µg/mL
- Oxacillin MIC (MRSA 2, with 50 μg/ml of compound): 32 µg/mL
- Oxacillin MIC (MRSA 3, with 12.5 μg/ml of compound): 64 µg/mL
- Oxacillin MIC (MRSA 3, with 25 μg/ml of compound): 32 µg/mL
- Oxacillin MIC (MRSA 3, with 50 μg/ml of compound): 32 µg/mL
- Oxacillin MIC (MRSA 4, with 12.5 μg/ml of compound): 256 µg/mL
- Oxacillin MIC (MRSA 4, with 25 μg/ml of compound): 256 µg/mL
- Oxacillin MIC (MRSA 4, with 50 μg/ml of compound): 256 µg/mL
- Oxacillin MIC (MRSA 5, with 12.5 μg/ml of compound): >256 µg/mL
- Oxacillin MIC (MRSA 5, with 25 μg/ml of compound): 256 µg/mL
- Oxacillin MIC (MRSA 5, with 50 μg/ml of compound): 256 µg/mL
- Oxacillin MIC (MRSA 6, with 12.5 μg/ml of compound): 128 µg/mL
- Oxacillin MIC (MRSA 6, with 25 μg/ml of compound): 32 µg/mL
- Oxacillin MIC (MRSA 6, with 50 μg/ml of compound): 64 µg/mL
- Oxacillin MIC (MRSA 7, with 12.5 μg/ml of compound): 256 µg/mL
- Oxacillin MIC (MRSA 7, with 25 μg/ml of compound): 128 µg/mL
- Oxacillin MIC (MRSA 7, with 50 μg/ml of compound): 64 µg/mL
- Oxacillin MIC (MRSA 8, with 12.5 μg/ml of compound): 64 µg/mL
- Oxacillin MIC (MRSA 8, with 25 μg/ml of compound): 64 µg/mL
- Oxacillin MIC (MRSA 8, with 50 μg/ml of compound): 64 µg/mL
- Oxacillin MIC (MRSA 9, with 12.5 μg/ml of compound): >256 µg/mL
- Oxacillin MIC (MRSA 9, with 25 μg/ml of compound): 256 µg/mL
- Oxacillin MIC (MRSA 9, with 50 μg/ml of compound): 128 µg/mL
- Oxacillin MIC (MRSA 10, with 12.5 μg/ml of compound): 64 µg/mL
- Oxacillin MIC (MRSA 10, with 25 μg/ml of compound): 64 µg/mL
- Oxacillin MIC (MRSA 10, with 50 μg/ml of compound): 64 µg/mL
- Oxacillin MIC (MRSA 12, with 12.5 μg/ml of compound): 256 µg/mL
- Oxacillin MIC (MRSA 12, with 25 μg/ml of compound): 128 µg/mL
- Oxacillin MIC (MRSA 12, with 50 μg/ml of compound): 256 µg/mL
- Oxacillin MIC (MRSA 16, with 12.5 μg/ml of compound): >255 µg/mL
- Oxacillin MIC (MRSA 16, with 25 μg/ml of compound): 256 µg/mL
- Oxacillin MIC (MRSA 16, with 50 μg/ml of compound): 256 µg/mL
- Oxacillin MIC (MRSA 17, with 12.5 μg/ml of compound): 128 µg/mL
- Oxacillin MIC (MRSA 17, with 25 μg/ml of compound): 256 µg/mL
- Oxacillin MIC (MRSA 17, with 50 μg/ml of compound): 256 µg/mL
- Oxacillin MIC (MRSA 18, with 12.5 μg/ml of compound): 256 µg/mL
- Oxacillin MIC (MRSA 18, with 25 μg/ml of compound): 128 µg/mL
- Oxacillin MIC (MRSA 18, with 50 μg/ml of compound): 128 µg/mL
- Oxacillin MIC (MRSA 20, with 12.5 μg/ml of compound): 8 µg/mL
- Oxacillin MIC (MRSA 20, with 25 μg/ml of compound): 2 µg/mL
- Oxacillin MIC (MRSA 20, with 50 μg/ml of compound): 4 µg/mL
- Oxacillin MIC (MRSA 21, with 12.5 μg/ml of compound): 32 µg/mL
- Oxacillin MIC (MRSA 21, with 25 μg/ml of compound): 8 µg/mL
- Oxacillin MIC (MRSA 21, with 50 μg/ml of compound): 16 µg/mL
- Oxacillin MIC (MRSA 22, with 12.5 μg/ml of compound): 32 µg/mL
- Oxacillin MIC (MRSA 22, with 25 μg/ml of compound): 16 µg/mL
- Oxacillin MIC (MRSA 22, with 50 μg/ml of compound): 32 µg/mL
- Oxacillin MIC (MRSA COL, with 12.5 μg/ml of compound): 256 µg/mL
- Oxacillin MIC (MRSA COL, with 25 μg/ml of compound): 128 µg/mL
- Oxacillin MIC (MRSA COL, with 50 μg/ml of compound): 128 µg/mL
- Oxacillin MIC (MSSA 1003, with 12.5 μg/ml of compound): <0.5 µg/mL
- Oxacillin MIC (MSSA 1003, with 25 μg/ml of compound): <0.5 µg/mL
- Oxacillin MIC (MSSA 1003, with 50 μg/ml of compound): <0.5 µg/mL
- Oxacillin MIC (MSSA 1010, with 12.5 μg/ml of compound): <0.5 µg/mL
- Oxacillin MIC (MSSA 1010, with 25 μg/ml of compound): <0.5 µg/mL
- Oxacillin MIC (MSSA 1010, with 50 μg/ml of compound): <0.5 µg/mL
- Oxacillin MIC (MSSA 1032, with 12.5 μg/ml of compound): <0.5 µg/mL
- Oxacillin MIC (MSSA 1032, with 25 μg/ml of compound): <0.5 µg/mL
- Oxacillin MIC (MSSA 1032, with 50 μg/ml of compound): <0.5 µg/mL
- Oxacillin MIC (RN4220, with 12.5 μg/ml of compound): <0.5 µg/mL
- Oxacillin MIC (RN4220, with 25 μg/ml of compound): <0.5 µg/mL
- Oxacillin MIC (RN4220, with 50 μg/ml of compound): <0.5 µg/mL

SMILES: O=C(OC1CC(O)(C(=O)O)CC(OC(=O)c2cc(O)c(O)c(O)c2)C1OC(=O)c1cc(O)c(O)c(O)c1)c1cc(O)c(O)c(O)c1 (stereo not shown) [3,4,5-trigalloylquinic acid]
- effect of combination use with oxacillin (words): excellent; also recorded: most potent

— patent US20060235076A1, “Medicinal composition for treating infection with drug-resistant staphylococcus aureus” (priority 2003, published 2006)
